According to ChEMBL document CHEMBL5532661, “Discovery of a Novel Glucagon-like Peptide-1 (GLP-1) Analogue from Bullfrog and Investigation of Its Potential for Designing GLP-1-Based Multiagonists” (J Med Chem, 2024):
pEC50: −log10 of the molar value. Blank lines part the entries; values can stand above or below the compound they belong to. Active and inactive are the calls of the source. No cut-off for these calls is given here. Numbered stars: 1 amine (or outer) side, 2 acyl side, 3 side chain; on linkers, the order of the positions; unused ones are H or OH. Square brackets hold non-standard residues; d marks the D form. Side chains are listed from the residue outwards. Peptide text beside a SMILES is read from it. * marks the point of attachment. C18 diacid = O=C(O)CCCCCCCCCCCCCCCCC(=O)*; γGlu = O=C(O)[C@H](CCC(=O)[*:2])N[*:1]; AEEA = NCCOCCOCC(=O)O; Aib = CC(C)(N)C(=O)O

How the values were obtained:
Mus musculus [1] = assay: Hypoglycemic effect in ICR mouse treated with 3 g/kg glucose assessed as reduction in blood glucose level at 10 nmol/kg, sc measured upto 120 mins by acute glucose lowering test; type: functional, organism-based
Mus musculus [2] = assay: Anorexigenic effect in ICR mouse assessed as decrease in food intake at 30 nmol/kg, sc measured upto 72 hrs by acute food intake study; type: functional, organism-based
Mus musculus [3] = assay: Reduction in total cholesterol in DIO mouse at 30 nmol/kg, sc treated every 2 and half day once measured after 21 days; type: functional, organism-based; conditions: time 21.0 day
Mus musculus [4] = assay: Reduction in serum AST in DIO mouse at 30 nmol/kg, sc treated every 2 and half day once measured after 21 days; type: functional, organism-based; conditions: time 21.0 day
Mus musculus [5] = assay: Anorexigenic effect in ICR mouse assessed as decrease in food intake at 10 nmol/kg, sc measured upto 72 hrs by acute food intake study; type: functional, organism-based
[6] = target: T1, Glucagon-like peptide 1 receptor (Mus musculus) (UniProt O35659); assay: Agonist activity at mouse GLP-1 receptor expressed in HEK293 cells assessed as cAMP level measured after 60 mins by HTRF based assay; type: functional, cell-based; conditions: filed as agonist
T1 sequence (whole entry): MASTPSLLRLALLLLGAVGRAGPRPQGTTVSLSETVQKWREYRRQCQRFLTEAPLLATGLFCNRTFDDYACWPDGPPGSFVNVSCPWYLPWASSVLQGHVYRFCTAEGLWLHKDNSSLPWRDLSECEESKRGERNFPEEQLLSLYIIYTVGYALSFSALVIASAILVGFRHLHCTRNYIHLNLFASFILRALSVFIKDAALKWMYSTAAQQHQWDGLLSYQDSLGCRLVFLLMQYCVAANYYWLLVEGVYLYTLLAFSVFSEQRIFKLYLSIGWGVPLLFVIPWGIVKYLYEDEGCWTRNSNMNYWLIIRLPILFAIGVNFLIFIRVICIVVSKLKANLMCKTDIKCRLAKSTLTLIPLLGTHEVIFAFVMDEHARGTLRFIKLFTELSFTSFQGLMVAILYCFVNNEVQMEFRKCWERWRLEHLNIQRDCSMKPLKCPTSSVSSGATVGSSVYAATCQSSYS

Mus musculus [7] = assay: Reduction in serum triglyceride in DIO mouse at 30 nmol/kg, sc treated every 2 and half day once measured after 21 days; type: functional, organism-based; conditions: time 21.0 day
[8] = target: T2, Gastric inhibitory polypeptide receptor (Homo sapiens, UniProt P48546); assay: Agonist activity at human GIPR receptor expressed in HEK293 cells assessed as cAMP level measured after 60 mins by HTRF based assay; type: functional, cell-based
T2 sequence (P48546 whole entry): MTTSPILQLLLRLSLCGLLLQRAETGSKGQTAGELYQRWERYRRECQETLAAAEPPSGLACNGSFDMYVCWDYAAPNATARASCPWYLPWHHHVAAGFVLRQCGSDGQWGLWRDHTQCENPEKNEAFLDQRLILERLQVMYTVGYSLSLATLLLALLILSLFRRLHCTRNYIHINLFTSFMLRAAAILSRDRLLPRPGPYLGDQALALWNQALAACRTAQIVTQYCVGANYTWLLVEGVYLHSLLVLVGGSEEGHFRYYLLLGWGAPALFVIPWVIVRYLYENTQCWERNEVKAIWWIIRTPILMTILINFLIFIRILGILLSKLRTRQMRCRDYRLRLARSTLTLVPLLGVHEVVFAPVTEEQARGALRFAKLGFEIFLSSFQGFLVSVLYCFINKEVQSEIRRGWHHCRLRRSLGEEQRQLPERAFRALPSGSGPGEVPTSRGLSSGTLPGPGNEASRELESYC

Mus musculus [9] = assay: Antihyperglycemic effect in DIO mouse assessed as antihyperglycemic duration by measuring blood glucose at 30 nmol/kg, sc administered twice daily measured by hypoglycemic duration assay; type: functional, organism-based
Mus musculus [10] = assay: Reduction in blood glucose level in non-fasting DIO mouse at 30 nmol/kg, sc treated every 2 and half day once measured after 21 days by glucose tolerance test; type: functional, organism-based; conditions: time 21.0 day
[11] = target: T1, Glucagon-like peptide 1 receptor (Mus musculus); assay: Potency index, ratio of GLP-1 EC50 to test compound EC50 for agonist activity at mouse GLP-1 receptor expressed in HEK293 cells assessed as cAMP level measured after 60 mins by HTRF based assay; type: functional, cell-based; conditions: filed as agonist
Mus musculus [12] = assay: Hypoglycemic effect in ICR mouse treated with 3 g/kg glucose assessed as reduction in blood glucose level at 30 nmol/kg, sc measured upto 120 mins pretreated with GLP-1R and GIPR antagonist by OGTT; type: functional, organism-based
Mus musculus [13] = assay: Reduction in total fat mass in DIO mouse at 30 nmol/kg, sc treated every 2 and half day once measured after 21 days; type: functional, organism-based; conditions: time 21.0 day
[14] = target: T3, Glucagon-like peptide 1 receptor (Homo sapiens, UniProt P43220); assay: Agonist activity at human GLP-1 receptor expressed in HEK293 cells assessed as cAMP level measured after 60 mins by HTRF based assay; type: functional, cell-based
Mus musculus [15] = assay: Reduction in body weight in DIO mouse at 30 nmol/kg, sc treated every 2 and half day once measured after 21 days; type: functional; set-up: scale not given: the % may be the effect or the level left; conditions: time 21 day
Mus musculus [16] = assay: Anorexigenic effect in sc dosed ICR mouse assessed as decrease in food intake measured upto 72 hrs by acute food intake study; type: functional, organism-based; conditions: dose 10-100 nmol/kg
[17] = target: Glucagon receptor (Mus musculus) (UniProt Q61606); assay: Agonist activity at mouse GCGR receptor expressed in HEK293 cells assessed as cAMP level measured after 60 mins by HTRF based assay; type: functional, cell-based; conditions: filed as agonist
[18] = target: Glucagon receptor (Mus musculus) (UniProt Q61606); assay: Potency index, ratio of glucagon EC50 to test compound EC50 for agonist activity at mouse GCGR expressed in HEK293 cells assessed as cAMP level measured after 60 mins by HTRF based assay; type: functional, cell-based; conditions: filed as agonist
[19] = target: T3, Glucagon-like peptide 1 receptor; assay: Agonist activity at human GLP-1 receptor expressed in HEK293 cells assessed as cAMP level by measuring relative percent (GLP-1 EC50/compound EC50) measured after 60 mins by HTRF based assay relative to GLP-1; type: functional, cell-based; conditions: filed as agonist
[20] = target: T4, Gastric inhibitory polypeptide receptor (Homo sapiens) (UniProt P48546); assay: Agonist activity at human GIPR receptor expressed in HEK293 cells assessed as cAMP level by measuring relative percent (GIP EC50/compound EC50) measured after 60 mins by HTRF based assay relative to GIP; type: functional, cell-based
T4 sequence (whole entry): T2 sequence (P48546 whole entry)

Mus musculus [21] = assay: Reduction in hepatic lipid content in DIO mouse at 30 nmol/kg, sc treated every 2 and half day once measured after 21 days by H and E staining based assay; type: functional, organism-based; conditions: time 21.0 day
Mus musculus [22] = assay: Antihyperglycemic effect in DIO mouse assessed as antihyperglycemic duration by measuring blood glucose at 30 nmol/kg, sc measured after 48 hrs by hypoglycemic duration assay; type: functional, organism-based
Glucagon receptor [23] = target: T5, Glucagon receptor (Homo sapiens, UniProt P47871); assay: Agonist activity at human GCGR expressed in HEK293 cells assessed as cAMP level by measuring relative percent (glucagon EC50/compound EC50) measured after 60 mins by HTRF based assay relative to glucagon; type: functional, cell-based; conditions: filed as agonist
Mus musculus [24] = assay: Reduction in serum ALT in DIO mouse at 30 nmol/kg, sc treated every 2 and half day once measured after 21 days; type: functional, organism-based; conditions: time 21.0 day
Glucagon receptor [25] = target: T5, Glucagon receptor; assay: Agonist activity at human GCGR expressed in HEK293 cells assessed as cAMP level measured after 60 mins by HTRF based assay; type: functional, cell-based
Mus musculus [26] = assay: Antihyperglycemic effect in DIO mouse assessed as prolonged antihyperglycemic duration by measuring blood glucose at 100 nmol/kg, sc; type: functional, organism-based
Mus musculus [27] = assay: Hypoglycemic effect in ICR mouse treated with 3 g/kg glucose assessed as reduction in blood glucose level at 100 nmol/kg, sc measured upto 120 mins by acute glucose lowering test; type: functional, organism-based
Mus musculus [28] = assay: Reduction in feed intake in DIO mouse at 30 nmol/kg, sc treated twice a day measured after 21 days; type: functional, organism-based; conditions: time 21.0 day
Mus musculus [29] = assay: Reduction in serum AST level in DIO mouse at 30 nmol/kg, sc treated twice a day measured after 21 days; type: functional, organism-based; conditions: time 21.0 day
Mus musculus [30] = assay: Reduction in serum ALT level in DIO mouse at 30 nmol/kg, sc treated twice a day measured after 21 days; type: functional, organism-based; conditions: time 21.0 day
Mus musculus [31] = assay: Reduction in body weight in DIO mouse at 30 nmol/kg, sc treated twice a day measured after 21 days; type: functional; set-up: scale not given: the % may be the effect or the level left; conditions: time 21 day

T5 sequence (P47871 whole entry): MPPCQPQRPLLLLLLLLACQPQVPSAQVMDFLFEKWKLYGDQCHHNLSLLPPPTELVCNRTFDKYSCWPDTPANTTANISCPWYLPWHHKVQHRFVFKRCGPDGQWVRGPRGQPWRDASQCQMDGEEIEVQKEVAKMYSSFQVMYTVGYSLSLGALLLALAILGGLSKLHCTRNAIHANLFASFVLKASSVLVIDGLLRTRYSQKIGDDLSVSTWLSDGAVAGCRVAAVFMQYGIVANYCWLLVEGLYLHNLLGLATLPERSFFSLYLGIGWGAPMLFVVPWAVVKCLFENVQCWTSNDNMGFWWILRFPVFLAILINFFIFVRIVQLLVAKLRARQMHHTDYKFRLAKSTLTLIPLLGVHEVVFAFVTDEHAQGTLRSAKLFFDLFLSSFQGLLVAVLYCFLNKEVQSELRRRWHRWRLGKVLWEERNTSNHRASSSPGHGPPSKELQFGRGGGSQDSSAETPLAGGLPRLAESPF
T3 sequence (P43220 whole entry): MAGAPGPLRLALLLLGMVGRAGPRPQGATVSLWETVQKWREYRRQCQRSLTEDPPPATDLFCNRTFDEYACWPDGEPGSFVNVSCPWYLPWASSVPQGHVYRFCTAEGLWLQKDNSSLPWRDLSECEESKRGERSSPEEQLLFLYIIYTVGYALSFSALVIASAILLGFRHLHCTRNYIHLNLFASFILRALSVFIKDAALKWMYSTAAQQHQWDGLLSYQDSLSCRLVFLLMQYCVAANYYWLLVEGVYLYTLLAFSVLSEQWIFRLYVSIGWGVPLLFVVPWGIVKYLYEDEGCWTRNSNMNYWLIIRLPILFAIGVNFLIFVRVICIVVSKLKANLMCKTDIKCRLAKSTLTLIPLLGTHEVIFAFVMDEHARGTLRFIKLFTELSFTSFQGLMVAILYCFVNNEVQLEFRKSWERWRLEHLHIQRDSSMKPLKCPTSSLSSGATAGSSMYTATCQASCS
Chain of Glucagon receptor (Mus musculus) (Q61606 whole entry): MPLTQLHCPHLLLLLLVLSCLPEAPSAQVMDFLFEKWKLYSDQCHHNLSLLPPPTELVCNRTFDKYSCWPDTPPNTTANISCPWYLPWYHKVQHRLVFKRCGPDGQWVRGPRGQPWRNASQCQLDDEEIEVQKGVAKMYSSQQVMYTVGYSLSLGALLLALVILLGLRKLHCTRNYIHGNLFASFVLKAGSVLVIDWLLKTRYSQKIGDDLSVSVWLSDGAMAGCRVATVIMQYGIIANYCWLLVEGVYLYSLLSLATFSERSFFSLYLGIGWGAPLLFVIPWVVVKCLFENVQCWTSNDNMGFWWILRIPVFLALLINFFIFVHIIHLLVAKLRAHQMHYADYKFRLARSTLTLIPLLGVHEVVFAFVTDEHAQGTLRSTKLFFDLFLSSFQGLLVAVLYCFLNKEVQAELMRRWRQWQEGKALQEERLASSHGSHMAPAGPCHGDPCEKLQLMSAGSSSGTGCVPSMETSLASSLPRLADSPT

SMILES: CC[C@H](C)[C@H](NC(=O)[C@H](CCCCNC(=O)COCCOCCNC(=O)COCCOCCNC(=O)CC[C@H](NC(=O)CCCCCCCCCCCCCCCCC(=O)O)C(=O)O)NC(=O)[C@H](CCC(=O)O)NC(=O)[C@H](CC(C)C)NC(=O)[C@H](C)NC(=O)[C@H](CCCNC(=N)N)NC(=O)[C@H](CO)NC(=O)[C@H](CCSC)NC(=O)[C@H](CC(=O)O)NC(=O)[C@H](CO)NC(=O)[C@@H](NC(=O)[C@H](Cc1ccccc1)NC(=O)[C@@H](NC(=O)CNC(=O)[C@H](CCC(N)=O)NC(=O)C(C)(C)NC(=O)[C@@H](N)Cc1c[nH]cn1)[C@@H](C)O)[C@@H](C)O)C(=O)N[C@@H](C)C(=O)N[C@@H](C)C(=O)N[C@@H](CCCNC(=N)N)C(=O)N[C@@H](CC(C)C)C(=O)N[C@@H](Cc1ccccc1)C(=O)N[C@H](C(=O)N[C@@H](CC(=O)O)C(=O)N[C@@H](Cc1c[nH]c2ccccc12)C(=O)N[C@@H](CC(C)C)C(=O)N[C@H](C(=O)N[C@@H](CCC(=O)O)C(=O)NCC(=O)NCC(=O)N1CCC[C@H]1C(=O)N[C@@H](CO)C(=O)N[C@@H](CO)C(=O)NCC(=O)N[C@@H](C)C(=O)N1CCC[C@H]1C(=O)N1CCC[C@H]1C(=O)N1CCC[C@H]1C(=O)N[C@@H](CO)C(N)=O)[C@@H](C)CC)C(C)C (H-H[Aib]QGTFTSDMSRALEK([AEEA-AEEA-γGlu-C18 diacid])IAARLFVDWLIEGGPSSGAPPPS-NH2)
- Activity (Mus musculus [1]): Active
- Activity (Mus musculus [2]): Active
- Activity (Mus musculus [3]): Active
- Activity (Mus musculus [4]): Active
- Activity (Mus musculus [5]): Active
- Activity [6]: Active
- Activity (Mus musculus [7]): Active
- pEC50 [8]: 9.22
- Activity (Mus musculus [9]): Active
- Activity (Mus musculus [10]): Active
- Ratio EC50 [11]: 1
- Activity (Mus musculus [12]): inactive
- Activity (Mus musculus [13]): Active
- pEC50 [14]: 10.92
- Activity (Mus musculus [15]): 40.7%
- Activity (Mus musculus [16]): Dose-Dependent Effect
- Activity [17]: Active
- Ratio EC50 [18]: 1
- Activity [19]: 442%
- Activity [20]: 4%
- Activity (Mus musculus [21]): Active
- Activity (Mus musculus [22]): Active
- Activity (Glucagon receptor [23]): 71%
- Activity (Mus musculus [24]): Active
- pEC50 (Glucagon receptor [25]): 9.89
- Activity (Mus musculus [26]): Active
- Activity (Mus musculus [27]): Active
- Activity (Mus musculus [28]): Active

- pEC50 [14]: 10.12
- pEC50 (Glucagon receptor [25]): 9.77
SMILES: CCCCCCCCCCCCCCCC(=O)N[C@@H](CCC(=O)NCCCC[C@H](NC(=O)[C@H](CC(=O)O)NC(=O)[C@H](CO)NC(=O)[C@@H](NC(=O)[C@H](Cc1ccccc1)NC(=O)[C@@H](NC(=O)CNC(=O)[C@H](CCC(N)=O)NC(=O)[C@H](CO)NC(=O)[C@@H](N)Cc1c[nH]cn1)[C@@H](C)O)[C@@H](C)O)C(=O)N[C@@H](CO)C(=O)N[C@@H](CCC(=O)O)C(=O)N[C@@H](Cc1ccc(O)cc1)C(=O)N[C@@H](CC(C)C)C(=O)N[C@@H](CC(=O)O)C(=O)N[C@@H](CO)C(=O)N[C@@H](CCC(=O)O)C(=O)N[C@@H](CCCNC(=N)N)C(=O)N[C@@H](C)C(=O)N[C@@H](CCCNC(=N)N)C(=O)N[C@@H](CC(=O)O)C(=O)N[C@@H](Cc1ccccc1)C(=O)N[C@H](C(=O)N[C@@H](C)C(=O)N[C@@H](Cc1c[nH]c2ccccc12)C(=O)N[C@@H](CC(C)C)C(=O)N[C@@H](CCC(=O)O)C(=O)N[C@@H](C)C(=O)NCC(=O)NCC(=O)O)C(C)C)C(=O)O [COTADUTIDE]
- Activity (Mus musculus [2]): Active
- Activity (Mus musculus [29]): Active
- Activity (Mus musculus [30]): Active
- Activity (Mus musculus [31]): ~24.6%
- Activity (Mus musculus [27]): Active
- Activity (Mus musculus [28]): Active
